Experimental data published in ChEMBL document CHEMBL3272164, “Compounds with gastric antisecretory activity. 1. Phenoxyalkylamines” (J Med Chem, 1977).

What was measured:
Rattus norvegicus [1] = test: Inhibition of histamine-induced gastric acid secretion in rat in perfused stomach preparation at 5 mg/kg, iv after 15 mins; format: functional; conditions: 0.25 h
Rattus norvegicus [2] = test: Inhibition of histamine-induced gastric acid secretion in rat in perfused stomach preparation at 2.5 mg/kg, iv after 15 mins; format: functional; conditions: 0.25 h
Rattus norvegicus [3] = test: Toxicity in rat at 5 mg/kg, iv; format: organism-based; parameters: dose 5 mg/kg, route intravenous; conditions: in vivo
Rattus norvegicus [4] = test: Inhibition of histamine-induced gastric acid secretion in rat in perfused stomach preparation at 1.25 mg/kg, iv after 15 mins; format: functional; conditions: 0.25 h
Rattus norvegicus [5] = test: Inhibition of histamine-induced gastric acid secretion in rat in perfused stomach preparation at 0.078 mg/kg, iv after 15 mins; format: functional; conditions: 0.25 h
Rattus norvegicus [6] = test: Inhibition of histamine-induced gastric acid secretion in po dosed rat in ligated stomach preparation administered 1 hr prior to the ligation of the pylorus; format: functional
Rattus norvegicus [7] = test: Inhibition of histamine-induced gastric acid secretion in iv dosed rat in perfused stomach preparation measured after 15 mins; format: functional; conditions: 0.25 h

SMILES | inhibition in vivo at 5 mg/kg (Rattus norvegicus [1]) [%] | also measured
CCCCCCc1ccccc1OCCN(CC)CC | 48 | –
CCCCCCCc1ccccc1OCCN(CC)CC | 82 | –
CCCCCCCCCc1ccccc1OCCN(CC)CC | 25 | –
CCN(CC)CCOc1ccccc1CCCC(C)(C)C | 50 | –
CCN(CC)CCOc1ccccc1CCC1CCCCC1 | 74 | –
CCN(CC)CCOc1ccc(F)cc1CCC1CCCCC1 | 95 | –
CCN(CC)CCOc1ccc(Cl)cc1CCC1CCCCC1 | 75 | –
CCN(CC)CCOc1ccc(OC)cc1CCC1CCCCC1 | 78 | –
CCCCCCCc1cc(C)ccc1OCCN(CC)CC | 61 | –
CCN(CC)CCOc1ccc(C(C)=O)cc1CCC1CCCCC1 | 36 | –
CN(C)CCOc1ccccc1CCC1CCCCC1 | 29 | –
CN(C)CCCOc1ccccc1CCC1CCCCC1 | 42 | –
CCN(CC)CCCOc1ccccc1CCC1CCCCC1 | 66 | –
c1ccc(OCCN2CCCC2)c(CCC2CCCCC2)c1 | 95 | –
c1ccc(OCCN2CCCCC2)c(CCC2CCCCC2)c1 | – | inhibition in vivo at 2.5 mg/kg (Rattus norvegicus [2]): 50%
c1ccc(OCCN2CCOCC2)c(CCC2CCCCC2)c1 | 10 | –
CCCN(CCC)CCOc1ccccc1CCC1CCCCC1 | 62 | –

SMILES | inhibition in vivo at 5 mg/kg (Rattus norvegicus [1]) [%] | also measured
CC(C)N(CCOc1ccccc1CCC1CCCCC1)C(C)C | 32 | –
CCCCCCCc1ccccc1OCCNCC.O=C(O)C(=O)O | – | Activity (Rattus norvegicus [3]): Toxic
CCCCCCCc1ccccc1OCCCNC(C)C.O=C(O)C(=O)O | – | Activity (Rattus norvegicus [3]): Toxic
c1ccc(OCCN2CCCC2)c(CCC23CC4CC(CC(C4)C2)C3)c1 | – | inhibition in vivo at 1.25 mg/kg (Rattus norvegicus [4]): 100%; inhibition in vivo at 0.078 mg/kg (Rattus norvegicus [5]): 83%
CN1CCN(CCOc2ccccc2CCC2CCCCC2)CC1 | 0 | –
c1ccc(N2CCN(CCOc3ccccc3CCC3CCCCC3)CC2)cc1 | 0 | –
CC(C)CN1CCN(CCOc2ccccc2CCC2CCCCC2)CC1 | 51 | –
CN1CCCCC1COc1ccccc1CCC1CCCCC1 (centres undefined) | 100 | inhibition in vivo at 2.5 mg/kg (Rattus norvegicus [2]): 64%
CCN1CCCC(COc2ccccc2CCC2CCCCC2)C1 (centres undefined) | 57 | –
CCN(CC)CCOc1ccccc1/C=C/C1CCCCC1 | – | inhibition in vivo at 1.25 mg/kg (Rattus norvegicus [4]): 82%
C(=C\C1CCCCC1)/c1ccccc1OCCN1CCCC1 | – | inhibition in vivo at 1.25 mg/kg (Rattus norvegicus [4]): 90%
CCCCC/C=C/c1ccccc1OCCN1CCCC1 | 71 | –
CCCCCC/C=C/c1ccccc1OCCN1CCCC1 | 50 | –
C(=C\C12CC3CC(CC(C3)C1)C2)/c1ccccc1OCCN1CCCC1.Cl | – | ED50 (Rattus norvegicus [6]): 1.5 mg/kg; inhibition in vivo at 0.078 mg/kg (Rattus norvegicus [5]): 97%; ED50 (Rattus norvegicus [7]): 0.018 mg/kg
C(=C/C12CC3CC(CC(C3)C1)C2)/c1ccccc1OCCN1CCCC1 | – | inhibition in vivo at 0.078 mg/kg (Rattus norvegicus [5]): 65%
CN(C)CCOc1ccccc1/C=C/C12CC3CC(CC(C3)C1)C2 (trans isomer) | – | inhibition in vivo at 0.078 mg/kg (Rattus norvegicus [5]): 52%
CN/C(=N\CCSCc1nc[nH]c1C)NC#N [CIMETIDINE] | – | ED50 (Rattus norvegicus [6]): 21.5 mg/kg; ED50 (Rattus norvegicus [7]): 0.3 mg/kg
